From patent publication US8673942B2, “Fused ring compounds and use thereof” (Takeda Pharmaceutical Company Limited, priority 2008, dated 2014)

Which melting point does the source give for `CC(C)Oc1cc(Oc2ccc(S(C)(=O)=O)cn2)cc2cc(C3=NCC(CC(C)(C)O)S3)[nH]c12` (single isomer, unassigned) [Example 64, 2-Methyl-1-{2-[7-(1-methylethoxy)-5-{[5-(methylsulfonyl)pyridin-2-yl]oxy}-1H-indol-2-yl]-4,5-dihydro-1,3-thiazol-5-yl}propan-2-ol] here?
The melting point was 145 to 146 °C.

With `CNC(=O)CC1CN=C(c2cc3cc(Oc4ccc(S(C)(=O)=O)nc4)cc(OC)c3[nH]2)S1` (stereo not shown) [Example 30, 2-[2-(7-Methoxy-5-{[6-(methylsulfonyl)pyridin-3-yl]oxy}-1H-indol-2-yl)-4,5-dihydro-1,3-thiazol-5-yl]-N-Methylacetamide] as the compound, how does the melting point read?
The melting point was 201 to 202 °C.

Which melting point does the source give for `CC(C)Oc1cc(Oc2ccc(S(C)(=O)=O)cn2)cc2cc(C3=NCC(CC(N)=O)S3)[nH]c12` (stereo not shown) [Example 67, 2-{2-[7-(1-Methylethoxy)-5-{[5-(methylsulfonyl)pyridin-2-yl]oxy}-1H-indol-2-yl]-4,5-dihydro-1,3-thiazol-5-yl}acetamide] here?
The melting point was 212 to 213 °C.

With `COc1cc(Oc2ccc(S(C)(=O)=O)cc2)cc2cc(C3=NCC(CC(=O)O)S3)[nH]c12` (stereo not shown) [Example 102, (2-{7-Methoxy-5-[4-(methylsulfonyl)phenoxy]-1H-indol-2-yl}-4,5-dihydro-1,3-thiazol-5-yl)acetic acid] as the compound, how does the melting point read?
Its melting point is 144 to 145 °C.

With `COCC(COC)Oc1cc(Oc2ccc(S(C)(=O)=O)nc2)cc2cc(C3=NCC(CCO)S3)[nH]c12` (stereo not shown) [Example 37, 2-[2-(7-[2-Methoxy-1-(methoxymethyl)ethoxy]-5-{[6-(methylsulfonyl)pyridin-3-yl]oxy}-1H-indol-2-yl)-4,5-dihydro-1,3-thiazol-5-yl]ethanol] as the compound, how does the melting point read?
The melting point was 69 to 71 °C.

For `CCNC(=O)CC1CN=C(c2cc3cc(Oc4ccc(COC)nc4)cc(OC)c3[nH]2)S1` (stereo not shown) [Example 51, N-Ethyl-2-[2-(7-methoxy-5-{[6-(methoxymethyl)pyridin-3-yl]oxy}-1H-indol-2-yl)-4,5-dihydro-1,3-thiazol-5-yl]acetamide], which melting point is on record?
The melting point was 130 to 132 °C.

Which melting point does the source give for `COCC(C)Oc1cc(Oc2ccc(S(C)(=O)=O)cc2)cc2cc(C3=NCC(C(OC)OC)S3)[nH]c12` (stereo not shown) [Example 88, 2-[5-(Dimethoxymethyl)-4,5-dihydro-1,3-thiazol-2-yl]-7-(2-methoxy-1-methylethoxy)-5-[4-(methylsulfonyl)phenoxy]-1H-indole] here?
Its melting point is 109 to 112 °C.

For `COc1cc(Oc2ccc(S(C)(=O)=O)nc2)cc2cc(C3=NCC(CC(=O)NCC(C)(C)O)S3)[nH]c12` (stereo not shown) [Example 73, N-(2-Hydroxy-2-methylpropyl)-2-[2-(7-methoxy-5-{[6-(methylsulfonyl)pyridin-3-yl]oxy}-1H-indol-2-yl)-4,5-dihydro-1,3-thiazol-5-yl]acetamide], which melting point is on record?
Its melting point is 200 to 201 °C.

Which melting point does the source give for `CS(=O)(=O)c1ccc(Oc2cc(OCc3ccccc3)c3[nH]c(-c4nnc(CO)s4)cc3c2)cc1` [Example 21, (5-{7-(Benzyloxy)-5-[4-(methylsulfonyl)phenoxy]-1H-indol-2-yl}-1,3,4-thiadiazol-2-yl)methanol] here?
Its melting point is 159 to 160 °C.

For `COCc1ccc(Oc2cc(OC(C)C)c3[nH]c(C4=NCC(CC(=O)NC5CC5)S4)cc3c2)cn1` (stereo not shown) [Example 72, N-Cyclopropyl-2-{2-[5-{[6-(methoxymethyl)pyridin-3-yl]oxy}-7-(1-methylethoxy)-1H-indol-2-yl]-4,5-dihydro-1,3-thiazol-5-yl}acetamide], which melting point is on record?
Its melting point is 100 to 101 °C.

Which melting point does the source give for `COCc1ccc(Oc2cc(OC)c3[nH]c(C4=NCC(CC(N)=O)S4)cc3c2)cn1` (stereo not shown) [Example 49, 2-[2-(7-Methoxy-5-{[6-(methoxymethyl)pyridin-3-yl]oxy}-1H-indol-2-yl)-4,5-dihydro-1,3-thiazol-5-yl]acetamide] here?
Its melting point is 135 to 136 °C.

Which melting point does the source give for `CCOC(=O)c1nnc(-c2cc3cc(Oc4ccc(S(C)(=O)=O)cc4)cc(OCc4ccccc4)c3[nH]2)s1` [Example 20, Ethyl 5-{7-(benzyloxy)-5-[4-(methylsulfonyl)phenoxy]-1H-indol-2-yl}-1,3,4-thiadiazole-2-carboxylate] here?
Its melting point is 194 to 195 °C.

With `COc1cc(Oc2ccc(S(C)(=O)=O)nc2)cc2cc(C3=NCC(CC(=O)NC4CC4)S3)[nH]c12` (stereo not shown) [Example 76, N-Cyclopropyl-2-[2-(7-methoxy-5-{[6-(methylsulfonyl)pyridin-3-yl]oxy}-1H-indol-2-yl)-4,5-dihydro-1,3-thiazol-5-yl]acetamide] as the compound, how does the melting point read?
The melting point was 248 to 249 °C.

With `COc1cc(Oc2ccc(S(C)(=O)=O)cc2)cc2cc(C3=NCC(CC(N)=O)S3)[nH]c12` (stereo not shown) [Example 104, 2-(2-{7-Methoxy-5-[4-(methylsulfonyl)phenoxy]-1H-indol-2-yl}-4,5-dihydro-1,3-thiazol-5-yl)acetamide] as the compound, how does the melting point read?
Its melting point is 169 to 170 °C.

With `CNC(=O)CC1CN=C(c2cc3cc(Oc4ccc(S(C)(=O)=O)cn4)cc(OC(C)C)c3[nH]2)S1` (stereo not shown) [Example 68, N-Methyl-2-{2-[7-(1-methylethoxy)-5-{[5-(methylsulfonyl)pyridin-2-yl]oxy}-1H-indol-2-yl]-4,5-dihydro-1,3-thiazol-5-yl}acetamide] as the compound, how does the melting point read?
Its melting point is 190 to 192 °C.

Which melting point does the source give for `COCC(C)Oc1cc(Oc2ccc(S(C)(=O)=O)cc2)cc2cc(C3=NCC(CC(C)(C)O)S3)[nH]c12` (stereo not shown) [Example 60, 1-(2-{7-(2-Methoxy-1-methylethoxy)-5-[4-(methylsulfonyl)phenoxy]-1H-indol-2-yl}-4,5-dihydro-1,3-thiazol-5-yl)-2-methylpropan-2-ol] here?
Its melting point is 112 to 113 °C.

With `CCOc1cc(Oc2ccc(S(C)(=O)=O)nc2)cc2cc(C3=NCC(CC(=O)O)S3)[nH]c12` (stereo not shown) [Example 96, [2-(7-Ethoxy-5-{[6-(methylsulfonyl)pyridin-3-yl]oxy}-1H-indol-2-yl)-4,5-dihydro-1,3-thiazol-5-yl]acetic acid] as the compound, how does the melting point read?
The melting point was 208 to 210 °C.

Which melting point does the source give for `COCCOc1c(F)c(Oc2ccc(S(C)(=O)=O)nc2)cc2cc(C3=NCC(CCO)S3)[nH]c12` (stereo not shown) [Example 90, 2-{2-[6-Fluoro-7-(2-methoxyethoxy)-5-{[6-(methylsulfonyl)pyridin-3-yl]oxy}-1H-indol-2-yl]-4,5-dihydro-1,3-thiazol-5-yl}ethanol] here?
The melting point was 160 to 161 °C.

With `CNC(=O)CC1CN=C(c2cc3cc(Oc4ccc(S(C)(=O)=O)nc4)cc(OC)c3[nH]2)S1` (single isomer, unassigned) [Example 32, 2-[2-(7-Methoxy-5-{[6-(methylsulfonyl)pyridin-3-yl]oxy}-1H-indol-2-yl)-4,5-dihydro-1,3-thiazol-5-yl]-N-methylacetamide] as the compound, how does the melting point read?
The melting point was 195 to 197 °C.

With `COCC(C)Oc1cc(Oc2ccc(S(C)(=O)=O)nc2)cc2cc(C3=NCC(CC(N)=O)S3)[nH]c12` (stereo not shown) [Example 86, 2-{2-[7-(2-Methoxy-1-methylethoxy)-5-{[6-(methylsulfonyl)pyridin-3-yl]oxy}-1H-indol-2-yl]-4,5-dihydro-1,3-thiazol-5-yl}acetamide] as the compound, how does the melting point read?
Its melting point is 131 to 132 °C.

For `CNC(=O)CC1CN=C(c2cc3cc(Oc4ccc(S(C)(=O)=O)nc4)cc(OC(COC)COC)c3[nH]2)S1` (stereo not shown) [Example 36, 2-[2-(7-[2-Methoxy-1-(methoxymethyl)ethoxy]-5-{[6-(methylsulfonyl)pyridin-3-yl]oxy}-1H-indol-2-yl)-4,5-dihydro-1,3-thiazol-5-yl]-N-methylacetamide], which melting point is on record?
Its melting point is 149 to 151 °C.

Which melting point does the source give for `CCOc1cc(Oc2ccc(S(C)(=O)=O)nc2)cc2cc(C3=NCC(CC(=O)NC)S3)[nH]c12` (stereo not shown) [Example 97, 2-[2-(7-Ethoxy-5-{[6-(methylsulfonyl)pyridin-3-yl]oxy}-1H-indol-2-yl)-4,5-dihydro-1,3-thiazol-5-yl]-N-methylacetamide] here?
Its melting point is 233 to 235 °C.

For `CC(C)Oc1cc(Oc2ccc(S(C)(=O)=O)cn2)cc2cc(C3=NCC(CC(C)(C)O)S3)[nH]c12` (stereo not shown) [Example 63, 2-Methyl-1-{2-[7-(1-methylethoxy)-5-{[5-(methylsulfonyl)pyridin-2-yl]oxy}-1H-indol-2-yl]-4,5-dihydro-1,3-thiazol-5-yl}propan-2-ol], which melting point is on record?
The melting point was 151 to 153 °C.

For `CCOc1cc(Oc2ccc(S(C)(=O)=O)nc2)cc2cc(C3=NCC(CCO)S3)[nH]c12` (stereo not shown) [Example 95, 2-[2-(7-Ethoxy-5-{[6-(methylsulfonyl)pyridin-3-yl]oxy}-1H-indol-2-yl)-4,5-dihydro-1,3-thiazol-5-yl]ethanol], which melting point is on record?
The melting point was 147 to 148 °C.

With `CNC(=O)CC1CN=C(c2cc3cc(Oc4ccc(COC)nc4)cc(OC)c3[nH]2)S1` (stereo not shown) [Example 50, 2-[2-(7-Methoxy-5-{[6-(methoxymethyl)pyridin-3-yl]oxy}-1H-indol-2-yl)-4,5-dihydro-1,3-thiazol-5-yl]-N-methylacetamide] as the compound, how does the melting point read?
The melting point was 102 to 104 °C.

For `CNC(=O)CC1CN=C(c2cc3cc(Oc4ccc(S(C)(=O)=O)cc4)cc(OC)c3[nH]2)S1` (stereo not shown) [Example 103, 2-(2-{7-Methoxy-5-[4-(methylsulfonyl)phenoxy]-1H-indol-2-yl}-4,5-dihydro-1,3-thiazol-5-yl)-N-methylacetamide], which melting point is on record?
The melting point was 125 to 126 °C.

For `CC(C)Oc1cc(Oc2ccc(S(C)(=O)=O)cn2)cc2cc(C3=NCC(CCO)S3)[nH]c12` (stereo not shown) [Example 62], which melting point is on record?
The melting point was 172 to 173 °C.

With `CS(=O)(=O)c1ccc(Oc2cc(OCc3ccccc3)c3[nH]c(C4=NCC(CCO)S4)cc3c2)cc1` (stereo not shown) [Example 2, 2-(2-{7-(Benzyloxy)-5-[4-(methylsulfonyl)phenoxy]-1H-indol-2-yl}-4,5-dihydro-1,3-thiazol-5-yl)ethanol] as the compound, how does the melting point read?
The melting point was 97 to 98 °C.

Which melting point does the source give for `CCNC(=O)CC1CN=C(c2cc3cc(Oc4ccc(S(C)(=O)=O)nc4)cc(OC)c3[nH]2)S1` (stereo not shown) [Example 77, N-Ethyl-2-[2-(7-methoxy-5-{[6-(methylsulfonyl)pyridin-3-yl]oxy}-1H-indol-2-yl)-4,5-dihydro-1,3-thiazol-5-yl]acetamide] here?
Its melting point is 236 to 237 °C.

Which melting point does the source give for `CS(=O)(=O)c1ccc(Oc2cc(OCc3cccc(Cl)n3)c3[nH]c(C4=NCC(CC(N)=O)S4)cc3c2)cc1` (stereo not shown) [Example 8, 2-(2-{7-[(6-Chloropyridin-2-yl)methoxy]-5-[4-(methylsulfonyl)phenoxy]-1H-indol-2-yl}-4,5-dihydro-1,3-thiazol-5-yl)acetamide] here?
The melting point was 147 to 148 °C.

Which melting point does the source give for `COc1cc(Oc2ccc(S(C)(=O)=O)nc2)cc2cc(C3=NCC(CC(N)=O)S3)[nH]c12` (stereo not shown) [Example 29, 2-[2-(7-Methoxy-5-{[6-(methylsulfonyl)pyridin-3-yl]oxy}-1H-indol-2-yl)-4,5-dihydro-1,3-thiazol-5-yl]acetamide] here?
Its melting point is 225 to 227 °C.
